Source: patent US20140357706A1, “Stearate Compounds” (THE UAB RESEARCH FOUNDATION, priority 2011, published 2014)

How the values were obtained:
[1] = tested on: differentiated 3T3L1 adipocytes; assay: Necrosis and apoptosis of differentiated 3T3L1 adipocytes (trypan blue, LDH, flow cytometry); assay type: cell-based, mouse; conditions: 50 μM
Procedure: 3T3L1 mouse fibroblast cells (ATCC, CL-173™) were maintained according to the manufacture's protocol, in Dulbecco's modified eagle's medium (DMEM) containing 10% Fetal Bovine Serum and antibiotics (M1 medium). Adipocyte differentiation was performed according to standard procedures (42). Briefly, the 3T3L1 fibroblasts were seeded at 30% confluence and allowed to grow to near 100% confluence. On the day after reaching maximum confluence, conversion was induced by replacing the M1 medium with M1 medium containing insulin (5 μg/ml), dexamethasone (0.25 μM), and 3-isobutyl-1-methyl-xanthine (0.5 mM). After 2 days, the cells were changed to M1 medium with insulin (5 μg/ml) for an additional 2 days. Thereafter, the cells were maintained in M1 medium without additives for 2 days.
50 μM of stearate, oleate or linoleate was used to treat 3T3L1 cells as this concentration is centered within the normal range for non-esterified stearate in the plasma of humans. Stearate, oleate, or linoleate was loaded onto fatty acid free BSA according to the method reported by Spector and Hoak (Spector and Hoak, 1969). Briefly, stearate (0.5 g) was dissolved in chloroform (100 mL) and mixed well with 10 g diatomaceous earth in a 1 liter flask. The mixture was stirred and dried under nitrogen until powder. Fatty acid free BSA (1 g) was dissolved in 100 mL with DMEM without phenol red and mixed with 3 g of the stearate/diatomaceous earth mixture and stirred for 30 minutes. The stearate/BSA solution was filtered through a 0.45 μm filter, and adjusted to pH 7.4. The concentration of stearate in the solution was detected by use of a NEFA C kit. Oleic and linoleate were loaded in the same way. […] Before the treatment with fatty acid, 3T3L1 preadipocytes were grown to 100%, and were starved in 2% FBS medium for 24 hours.
After treatment, 3T3L1 cells were harvested, washed with cold PBS, and then resuspended in 100 μl annexin-binding buffer (50 mM HEPES, 700 mM NaCl, 12.5 mM CaCl2, pH 7.4). Cell density was determined, and the cells were diluted to 10^6 cells. Then 5μL of Alex Fluo 488 annexin V and 1 μL propidium iodide (PI) were added. Cells were gently oscillated and incubated for 15 min at room temperature. After adding 400 μL of binding buffer to each tube, cells were kept on ice and analyzed by flow cytometry within 1 hour. Cells that stained positive for Alex Fluo 488 annexin V and negative for PI were considered to be apoptotic. Cells that stained positive for both Alex Fluo 488 annexin V and PI were considered either in the end stage of apoptosis, or necrosis. Cells that stained negative for both Alex Fluo 488 annexin V and PI were considered alive and not undergoing measurable apoptosis. A BD LSR II flow cytometer from Becton Dickinson was used in all flow experiments and the data were analyzed with BD FACSDiva™ software V.6.1.3.
Lactate dehydrogenase (LDH) release was measured using a cytotoxicity detection kit, according to the manufacture's protocol. After 3T3L1 cells were treated, 1 ml of cell culture medium was removed and centrifuged. The supernatant was retained for assaying. For determinations, 100 μl of LDH assay reagent was added to 100 μl of supernatant and incubated for 30 min at room temperature in the dark. Absorbance was measured at 490 nm. Background release from culture medium alone was subtracted before reporting. Maximum release was measured after adding 2% Triton X-100 to untreated cells.
After treatment, 3T3L1 cells were harvested and stained with 0.4% trypan blue solution. Cells in the four corners of the grid were counted under a conventional bright field binocular microscope.

[2] = tested on: visceral adipocytes from ApoE knockout mice; assay: Expression of cIAP2, Bcl-2 and Bax in visceral adipocyte cultures; assay type: cell-based; conditions: 50 μM fatty acid; vs no additional fatty acid
Procedure: It was hypothesized that stearate induces apoptosis in visceral adipocytes by at least one of the following mechanisms: inhibition of cIAP2, activation of Bcl-2, and activation of BAX. […] Six cultures were exposed to each fatty acid or no fatty acid. The expression of cIAP2, Bcl-2, and Bax was measured in each culture. […] By decreasing levels of the cIAP2 and/or Bcl-2 polypeptides and increasing expression of the Bax polypeptide, stearate administration may lead to an increase in cellular apoptotic activity (such as but not limited to the visceral fat tissues). Without wishing to be bound by any given hypothetical model, it is proposed that this reduction in cIAP2 expression and this increase in Bax expression (independently or in combination) is responsible for the relative decrease in visceral fat tissue that is observed when animals are given a diet that is high in stearate.

[3] = tested on: Hs578T human breast cancer cells; assay: Flow cytometry cell cycle analysis; assay type: cell-based; conditions: 50 μM stearate
Procedure: Hs578T human breast cancer cells (ATCC, HTB-126) were maintained according to the manufacturer's recommendations, in Dulbecco's modified Eagle's medium containing 10% fetal bovine serum, […] insulin and penicillin/streptomycin.
The concentration of stearate used to treat the Hs578T cells was 50 μM. When EGF was used, the concentration was 1 nM EGF. Before the treatment with stearate or EGF, cells were first starved for 24-48 hours. Stearate was loaded onto fatty acid-free bovine serum albumin (BSA) according to the method reported by Spector et al. (13); briefly, stearate (0.5 g) was dissolved in chloroform (100 ml) and mixed well with 10 g diatomaceous earth in a 1 liter flask. The mixture was stirred and dried under nitrogen until powder. BSA is a physiological carrier of fatty acids and was used to avoid the introduction of organic solvents to solutions coming into contact with cells. […] The concentration of stearate in the solution was detected with the NEFA C Kit from Wako Chemicals GmbH (Neuss, Germany). […]
To analyze cellular DNA content, confluent Hs578t cells were harvested, fixed in ice-cold 70% ethanol for 30 min and then resuspended in citrate buffer (4 mM sodium citrate) containing 50 μg/ml of propidium iodide and 100 μg/ml of RNase. […] Data were analyzed using the ModFit LT workshop program (BD Immunocytometry System, San Jose, Calif.).

MCF10A = conditions: ref (27); cited from earlier work

## CCCCCCCCCCCCCCCCCC(=O)O [stearate, Stearic acid]
[1]
  Cytotoxicity (lactate dehydrogenase in medium): no significant changes
  Percentage of apoptotic cells (flow cytometry): no significant changes
  Percentage of dead cells (flow cytometry): no significant changes
  Percentage of dead cells (trypan blue): no significant changes
[2]
  Expression of Bax: increases
  Expression of cIAP2: reduces
[3]
  Cells in the S phase: reduced
[3]; also in complete media and with EGF
  Number of cells in G0/G1 and G2/M: increased
MCF10A
  Effect on MCF10A non-tumorigenic cell line: not affected
